Assay results reported in patent publication US20230035723A1, “Treatment of Pancreatic Cancer” (SynCore Biotechnology Co., Ltd., priority 2017, published 2023).
Counter-ions that a name gives are not always drawn. Like-named read-outs stand apart in the source and are kept apart here.

Assays:
PAXF 2005 = test: Cell lines exhibiting drug resistance (IC50); type: cell-based
PAXF PANC-1 = test: Cell lines exhibiting drug resistance (IC50); type: cell-based
PAXF 1986 = test: Cell lines exhibiting drug resistance (IC50); type: cell-based
PAXF 546 = test: Cell lines exhibiting drug resistance (IC50); type: cell-based
PAXF 2035 = test: Cell lines exhibiting drug resistance (IC50); type: cell-based
pancreatic cancer [1] = conditions: pancreatic cancer patients; P=0.002; cited from earlier work
PAXF 1998 = test: Cell lines exhibiting drug resistance (IC50); type: cell-based
PAXF CAPAN-2 = test: Cell lines exhibiting drug resistance (IC50); type: cell-based
PAXF 2059 = test: Cell lines exhibiting drug resistance (IC50); type: cell-based
PAXF HPAC = test: Cell lines exhibiting drug resistance (IC50); type: cell-based
[2] = test system: unresectable pancreatic cancer; conditions: phase III study; cited from earlier work
[3] = test system: metastatic pancreatic cancer; conditions: first-line therapy; cited from earlier work
pancreatic cancer [4] = conditions: phase III study, pancreatic cancer patients; cited from earlier work
[5] = test system: metastatic pancreatic cancer; conditions: first-line therapy of metastatic pancreatic cancer; cited from earlier work

Molecule	IC50 (PAXF PANC-1; Homo sapiens) [µM]	IC50 (PAXF 1986) [µM]	IC50 (PAXF 546; Homo sapiens, PAXF546) [µM]	IC50 (PAXF 2035) [µM]	IC50 (PAXF 1998) [µM]	IC50 (PAXF PANC-1) [µM]	IC50 (PAXF 546) [µM]	further results
O=c1[nH]cc(F)c(=O)[nH]1 [5-Fluorouracil]	3.23	2.25	1.25	105	7.48			IC50 (PAXF 2005): 10.3 µM; median overall survival (pancreatic cancer [1]): 4.4 months
CC(C)C[C@H](NC(=O)[C@H](Cc1ccccc1)NC(=O)c1cnccn1)B(O)O [Bortezomib]	0.018		0.005					
N.N.O=C([O-])C1(C(=O)[O-])CCC1.[Pt+2] [Carboplatin]						15.6	17.1	
N.N.[Cl][Pt][Cl] [Cisplatin]		4.83		46	75.7	7.44	11.5	IC50 (PAXF 2005; PAXF 2005): 10.8 µM; IC50 (PAXF CAPAN-2): 62.1 µM; IC50 (PAXF 2059): 41 µM; IC50 (PAXF HPAC): 31.7 µM
Nc1ccn([C@@H]2O[C@H](CO)[C@@H](O)[C@@H]2O)c(=O)n1 [Cytarabine]	0.158		4.64					
CC(=O)O[C@@]12CO[C@@H]1C[C@H](O)[C@@]1(C)C(=O)[C@H](O)C3=C(C)[C@@H](OC(=O)[C@H](O)[C@@H](NC(=O)OC(C)(C)C)c4ccccc4)C[C@@](O)([C@@H](OC(=O)c4ccccc4)[C@H]21)C3(C)C [Docetaxel]		0.006	0.104	0.004	0.015			IC50 (PAXF 2005): 0.1 µM; IC50 (PAXF 2059): 0.1 µM
COc1cccc2c1C(=O)c1c(O)c3c(c(O)c1C2=O)C[C@@](O)(C(=O)CO)C[C@@H]3O[C@H]1C[C@H](N)[C@H](O)[C@H](C)O1 [Doxorubicin HCl]	0.049	0.059	0.134	0.795	1.23			IC50 (PAXF 2005): 0.251 µM; IC50 (PAXF 2059): 0.131 µM
O=NN(CCCl)C(=O)NCCO [Elmustin]						375	722	
C#Cc1cccc(Nc2ncnc3cc(OCCOC)c(OCCOC)cc23)c1 [Erlotinib HCl]	113	100	46.1	83.6	99.1			IC50 (PAXF 2005): 52.7 µM
COc1cc([C@@H]2c3cc4c(cc3[C@@H](O[C@@H]3O[C@@H]5CO[C@@H](C)O[C@H]5[C@H](O)[C@H]3O)[C@H]3COC(=O)[C@H]23)OCO4)cc(OC)c1O [Etoposide]	1.5		7.41					
Nc1ccn([C@@H]2O[C@H](CO)[C@@H](O)C2(F)F)c(=O)n1 [Gemcitabine HCl]	5.22	0.008	0.097	1.49	0.158			IC50 (PAXF 2005): 0.39 µM; IC50 (PAXF CAPAN-2; Homo sapiens): 3.67 µM; IC50 (PAXF 2059): 0.015 µM; IC50 (PAXF HPAC; Homo sapiens): 0.421 µM
CC(=O)[C@]1(O)Cc2c(O)c3c(c(O)c2[C@@H](O[C@H]2C[C@H](N)[C@H](O)[C@H](C)O2)C1)C(=O)c1ccccc1C3=O [Idarubicin]	0.012		0.131					
O=NN(CCCl)C(=O)NC1CCCCC1 [Lomustine]	43.6		142					
CN(Cc1cnc2nc(N)nc(N)c2n1)c1ccc(C(=O)N[C@@H](CCC(=O)O)C(=O)O)cc1 [Methotrexate Hydrat]					0.16	0.038	0.129	IC50 (PAXF 2005; PAXF 2005): 10 µM; IC50 (PAXF 2059): 0.031 µM
CN(Cc1cnc2nc(N)nc(N)c2n1)c1ccc(C(=O)N[C@@H](CCC(=O)O)C(=O)O)cc1 [Methotrexate]	10		0.066					
CO[C@@]12[C@H](COC(N)=O)C3=C(C(=O)C(C)=C(N)C3=O)N1C[C@@H]1N[C@@H]12 [Mitomycin C]		0.188		0.678	0.987	1.12	0.465	IC50 (PAXF 2005; PAXF 2005): 0.276 µM

Molecule	IC50 (PAXF PANC-1; Homo sapiens) [µM]	IC50 (PAXF 1986) [µM]	IC50 (PAXF 546; Homo sapiens, PAXF546) [µM]	IC50 (PAXF 2035) [µM]	IC50 (PAXF 1998) [µM]	IC50 (PAXF PANC-1) [µM]	IC50 (PAXF 546) [µM]	further results
O=C1c2c(O)ccc(O)c2C(=O)c2c(NCCNCCO)ccc(NCCNCCO)c21 [Mitoxantron 2HCl]		0.035		0.067	0.24	0.01	0.187	IC50 (PAXF 2005; PAXF 2005): 0.016 µM; IC50 (PAXF 2059): 0.035 µM
O=C1[O][Pt]2([NH][C@@H]3CCCC[C@H]3[NH]2)[O]C1=O [Oxaliplatin]		1.61		99.2	34.6	0.994	1.24	IC50 (PAXF 2005; PAXF 2005): 12.5 µM
CC(=O)O[C@H]1C(=O)[C@@]2(C)[C@H]([C@H](OC(=O)c3ccccc3)[C@]3(O)C[C@H](OC(=O)[C@H](O)[C@@H](NC(=O)c4ccccc4)c4ccccc4)C(C)=C1C3(C)C)[C@]1(OC(C)=O)CO[C@@H]1C[C@@H]2O [Paclitaxel]	0.046	0.204	0.441	0.144	0.117			IC50 (PAXF 2005): 0.312 µM; IC50 (PAXF CAPAN-2; Homo sapiens): 0.444 µM; IC50 (PAXF 2059): 0.261 µM; IC50 (PAXF HPAC; Homo sapiens): 0.383 µM
Nc1nc2[nH]cc(CCc3ccc(C(=O)N[C@@H](CCC(=O)O)C(=O)O)cc3)c2c(=O)[nH]1 [Pemetrexed, dinatrium]						13	0.114	
CCN(CC)CCNC(=O)c1c(C)[nH]c(/C=C2\C(=O)Nc3ccc(F)cc32)c1C [Sunitinib malate]	8.55	4.24	7.38	2.4	13.2			IC50 (PAXF 2005): 7.09 µM; IC50 (PAXF 2059): 16.5 µM
CC[C@@]1(O)C(=O)OCc2c1cc1n(c2=O)Cc2cc3c(CN(C)C)c(O)ccc3nc2-1 [Topotecan HCl]	0.042		0.08					
CS(=O)(=O)OC[C@H](O)[C@@H](O)COS(C)(=O)=O [Treosulfan]	2.02		48.1					
CCCS(=O)(=O)Nc1ccc(F)c(C(=O)c2c[nH]c3ncc(-c4ccc(Cl)cc4)cc23)c1F [Vemurafenib]	16.1	9.34	5.33	11.4	10.8			IC50 (PAXF 2005): 6.75 µM; IC50 (PAXF 2059): 11.4 µM
CC[C@]1(O)C[C@@H]2CN(CCc3c([nH]c4ccccc34)[C@@](C(=O)OC)(c3cc4c(cc3OC)N(C)[C@H]3[C@@](O)(C(=O)OC)[C@H](OC(C)=O)[C@]5(CC)C=CCN6CC[C@]43[C@@H]65)C2)C1 [Vinblastine sulfate]	0.001		0.071					
CC[C@]1(O)C[C@H]2CN(CCc3c([nH]c4ccccc34)[C@@](C(=O)OC)(c3cc4c(cc3OC)N(C=O)[C@H]3[C@@](O)(C(=O)OC)[C@H](OC(C)=O)[C@]5(CC)C=CCN6CC[C@]43[C@@H]65)C2)C1 [Vincristine sulfate]	0.003	0.3	0.247	0.462	0.008			IC50 (PAXF 2005): 0.045 µM
CC[C@]1(O)C[C@@H]2CN(CCc3c([nH]c4ccccc34)[C@@](C(=O)OC)(c3cc4c(cc3OC)N(C)[C@H]3[C@@](O)(C(N)=O)[C@H](O)[C@]5(CC)C=CCN6CC[C@]43[C@@H]65)C2)C1 [Vindesin sulfate]						0.005	0.109	
Nc1ccn([C@@H]2O[C@H](CO)[C@@H](O)C2(F)F)c(=O)n1 [gemcitabine]								median overall survival [2]: 8.8 months; median overall survival [3]: 6.7 months; one-year survival (pancreatic cancer [4]): 17%; median overall survival (pancreatic cancer [1]): 5.6 months; median overall survival [5]: 6.8 months
Bleomycin sulfate						0.149	10.7	
FOLFIRINOX								median overall survival [5]: 11.1 months
Vinorelbine bistartrate						0.002	0.072	
